# Measurements taken from patent publication US20060058324A1, “4-Amino-5-phenyl-7-cyclohexyl-pyrrolo 2,3-d pyrimidine derivatives” (priority 2002, published 2006).
# Target: T1, human IGF-IR (Homo sapiens, UniProt P08069)
# T1 construct: complete human IGF-IR cDNA: GenBank Acc; No. NM_000875; expressed in transfected cells; host or cells: NIH-3T3 mouse fibroblasts (NWT-21 cell line), prepared as in Kato et al., J. Biol. Chem. 268, 2655-61, 1993
# Assay: cellular "Capture ELISA" test for activity against IGF-I induced IGF-IR autophosphorylation
# Format: cell-based
# Conditions: IGF-I (10 ng/ml) induced IGF-IR autophosphorylation in NIH-3T3 mouse fibroblasts transfected with human IGF-IR (NWT-21 cell line); 90 min compound incubation
# Description: In this assay the activity of the compounds of the invention against Insulin-like growth factor I (IGF-I) induced autophosphorylation of the IGF-IR is determined. The assay is conducted as follows:
# The cells which overexpress human IGF-IR are cultured in Dulbecco's minimal essential (DMEM) medium, containing 10% Fetal Calf Serum (FCS). […] On day 3 the medium is discarded and the cells are incubated for 24 h in minimal medium (DMEM, containing 0.5% FCS).
# The plates are washed twice with 0.05% (v/v) Tween-20 in Phosphate-Buffered Saline (PBS) and once with nanopure H2O. […] After blocking, the plates are washed once with nanopure H2O.
# After incubating the extracts and the secondary antibody for 2 h at 4° C., the extracts are discarded, the plates are washed twice with 0.05% (v/v) Tween-20 in PBS and once with nanopure water.
# 90 μl/well AP substrate (CDP-Star; obtained from Tropix; Cat. No.: MS100RY) are then added and the plates are incubated for 45 min at RT in the dark, followed by measuring AP activity in a Packard Top Count Microplate Scintillation Counter. The IC50 values for the compounds of formula I are calculated via linear regression analysis using the GraphPad In-stat program (GraphPad Software, USA).
# Test for activity against IGF-I induced IGF-IR autophosphorylation using the cellular “Capture ELISA” test
# The cellular “Capture ELISA” test is carried out as described above.
# T1 sequence (P08069 31-1367): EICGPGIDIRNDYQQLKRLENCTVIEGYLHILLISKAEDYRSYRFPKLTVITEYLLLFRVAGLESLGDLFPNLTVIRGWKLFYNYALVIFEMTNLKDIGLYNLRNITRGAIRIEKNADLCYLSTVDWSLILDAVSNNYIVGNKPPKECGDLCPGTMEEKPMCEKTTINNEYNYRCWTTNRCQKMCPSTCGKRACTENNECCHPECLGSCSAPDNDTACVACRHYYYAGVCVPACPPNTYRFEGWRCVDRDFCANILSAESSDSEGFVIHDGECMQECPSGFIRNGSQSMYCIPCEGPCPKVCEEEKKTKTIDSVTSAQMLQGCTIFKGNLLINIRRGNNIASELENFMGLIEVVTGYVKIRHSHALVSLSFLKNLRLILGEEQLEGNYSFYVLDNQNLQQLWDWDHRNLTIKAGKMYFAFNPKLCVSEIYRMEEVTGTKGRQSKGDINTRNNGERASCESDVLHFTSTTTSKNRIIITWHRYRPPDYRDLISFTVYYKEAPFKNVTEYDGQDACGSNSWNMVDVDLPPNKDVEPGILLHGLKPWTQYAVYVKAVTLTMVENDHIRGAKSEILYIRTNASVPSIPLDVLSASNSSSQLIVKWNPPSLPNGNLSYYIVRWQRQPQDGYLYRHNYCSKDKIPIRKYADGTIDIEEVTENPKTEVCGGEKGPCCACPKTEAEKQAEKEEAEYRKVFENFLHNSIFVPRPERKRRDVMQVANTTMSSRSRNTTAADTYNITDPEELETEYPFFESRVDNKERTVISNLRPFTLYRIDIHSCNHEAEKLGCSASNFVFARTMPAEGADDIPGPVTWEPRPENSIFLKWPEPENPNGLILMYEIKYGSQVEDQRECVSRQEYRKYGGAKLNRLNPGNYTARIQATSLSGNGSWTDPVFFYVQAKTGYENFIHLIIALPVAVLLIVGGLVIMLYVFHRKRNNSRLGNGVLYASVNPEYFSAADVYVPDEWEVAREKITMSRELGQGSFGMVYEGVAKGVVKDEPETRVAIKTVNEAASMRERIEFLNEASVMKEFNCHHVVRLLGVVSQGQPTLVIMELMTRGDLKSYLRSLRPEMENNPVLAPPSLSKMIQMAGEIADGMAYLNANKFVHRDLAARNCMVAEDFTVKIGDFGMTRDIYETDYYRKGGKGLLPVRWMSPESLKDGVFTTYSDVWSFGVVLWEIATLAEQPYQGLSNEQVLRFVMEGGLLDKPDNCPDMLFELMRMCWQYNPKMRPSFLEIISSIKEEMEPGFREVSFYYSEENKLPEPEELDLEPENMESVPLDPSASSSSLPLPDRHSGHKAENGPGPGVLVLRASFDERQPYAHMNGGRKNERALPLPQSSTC
row,SMILES,IC50 [nM]
1,"Nc1ncnc2c1c(-c1cccc(OCc3ccccc3)c1)cn2[C@H]1CC[C@@H](N2CCC2)CC1 [Example 10, cis-7-(4-Azetidin-1-yl-cyclohexyl)-5-(3-benzyloxy-phenyl)-7H-pyrrolo[2,3-d]pyrimidin-4-ylamine]",120
2,"Nc1ncnc2c1c(-c1cccc(OCc3ccccc3)c1)cn2[C@H]1CC[C@H](N2CCC2)CC1 [Example 11, trans-7-(4-Azetidin-1-yl-cyclohexyl)-5-(3-benzyloxy-phenyl)-7H-pyrrolo[2,3-d]pyrimidin-4-ylamine]",350
3,"CCN(CC)[C@H]1CC[C@H](n2c(C)c(-c3cccc(OCc4ccccc4)c3)c3c(N)ncnc32)CC1 [Example 47, trans-5-(3-Benzyloxy-phenyl)-7-(4-diethylamino-cyclohexyl)-6-methyl-7H-Pyrrolo[2,3-d]pyrimidin-4-ylamine]",400
